# Measured values from patent US20240058363A1 (Emyria, priority 2020, published 2024).
# What was measured:
# Format in all cases: in vivo, human
# patients = assay: Adverse events recorded at each visit in patients on CBD only
# Description: (§1) Patients were assessed monthly by the clinical team (doctor and nurse) and a visit schedule protocol was followed for each patient. A full medical history was conducted at the initial visit, including a detailed history of the clinical indication (including duration symptoms), comorbidities mental and cardiac health conditions, previous procedures, medications and therapies tried. Patients were reviewed as per the Schedule of Assessments (FIG. 2). Cannabinoid dose and Adverse events were also recorded at each visit after treatment began and categorised as mild (no product change indicated), moderate (product change indicated), severe (product cessation indicated) or serious (life-threatening/medical emergency).
# Adverse events (AE) were recorded at each of the visits. AEs were categorised as either: Mild (required no change in dose or product), Moderate (required change in dose or product), Severe (required cessation of product) or Serious (medical emergency).
# All AEs reported during treatment were recorded. Assessments included monitoring of any or all of the following parameters: the participant's clinical symptoms, laboratory, pathological, radiological or surgical history, physical examination findings, and/or or findings from blood/urine tests. The nature, time of onset, duration and severity will be documented, together with the Investigator's opinion of the relationship to the Medicinal cannabis product.
# Review of the dose and side effects was conducted by the doctor at 2 weeks; the doctors then advise whether to increase/or decreases doses. Reviews and clinical visits beyond the 2 weeks occurred monthly or more often as required by the patient due to efficacy and side effects.
# symptoms of anxiety = assay: DASS-21 anxiety score in patients treated with CBD only (clinical data registry); conditions: for DASS-21 Anxiety Score, Post 1-month follow-up Mean (Std. dev): mean days of treatment 47 (+/−23)
# Description: (§2) Detailed demographic information and validated standardised questionnaires were collected as part of routine care. Written informed consent to treatment was obtained from all patients, as well as additional consent to participate in Emyria's clinical data registry, data from participating patients were anonymised, aggregated, and analysed to establish clinical efficacy.
# Clinically validated tools were used to monitor patients for management of symptoms, quality of life, physical/emotional functioning, and concomitant medication usage. […] After they commenced on medicinal cannabis treatment they were initially treated with low doses and monitored for safety and efficacy of treatment before dose escalation is considered.
# (§3) A potentially eligible individual who met any of the following criteria will be excluded from participation if the following criteria is met: • 1. Clinically recorded cannabis drug addiction, or cannabis use disorder including individuals with scores 8 or more on the Cannabis Use Disorder Identification Test (CUDIT). • 2. Untreated cardiovascular disease, arrhythmias (other than well controlled atrial fibrillation), or severe heart failure. • 3. History of suicide attempts or suicidal ideation. • 4. History of psychotic episode, schizophrenia or other psychotic disorders.
# Patients were assessed monthly by the clinical team (doctor and nurse) and a visit schedule protocol was followed for each patient. A full medical history was conducted at the initial visit, including a detailed history of the clinical indication (including duration symptoms), comorbidities mental and cardiac health conditions, previous procedures, medications and therapies tried. Patients were reviewed as per the Schedule of Assessments (FIG. 2).
# (§4) The doctors treating patients prescribed orally-based medicinal cannabis standardised products as per approval under the Therapeutic Goods Administration (TGA) through the Special Access Scheme (SAS) Category B and Authorised Prescriber (AP) scheme. The prescribing doctor will decide which product type including THC/CBD ratio and CBD only, based on TGA guidance documents (ie for pain THC/CBD type is generally prescribed) [see https://www.tga.gov.au/medicinal-cannabis-guidance-documents], but also will factor in patient's circumstances such as driving (then CBD only prescribed).
# (§5) Doctors reviewed patients after the 14 day (2 week), see the Schedule of Assessments (FIG. 2). Following the 2-week dosing review where a doctor may increase/decrease the dosage or change product type, patients were then seen regularly (generally monthly) as per the Schedule of Assessments (FIG. 2). Patients taking CBD only products were prescribed either oil or capsules.
# symptoms of stress = assay: DASS-21 stress score in patients treated with CBD only (clinical data registry); conditions: for DASS-21 Stress Score, Post 1-month follow-up Mean (Std. dev): mean days of treatment 47 (+/−23)
# Description: as §2
# Clinically validated tools were used to monitor patients for management of symptoms, quality of life, physical/emotional functioning, and concomitant medication usage. Patients were asked about their cannabis history and initially pre-screened for any illicit cannabis use before commencing on medicinal cannabis treatment using the Cannabis Use Disorder Identification Test (CUDIT), a urine screen was performed to confirm negative result for cannabis in their urine before they commence treatment. After they commenced on medicinal cannabis treatment they were initially treated with low doses and monitored for safety and efficacy of treatment before dose escalation is considered.
# Patients are excluded from treatment with medicinal cannabis if they: were pregnant or breast-feeding; have untreated heart disease, heart failure or arrhythmia; a history of severe psychiatric disorders; active suicidal ideation; a history of dependence on cannabis; a history of dependence or abuse of psychoactive substances; detectable urinary THC before commencement of medicinal cannabis.
# as §3, §1, §4
# as §5, with “Treatment dosing by the prescribing doctor was in accordance with Emyria (Emerald Clinics) experience, well-tolerated with minimal side effects. Doctors” for “Doctors”, “capsules. […]” for “capsules.”
# [1] = among the 36 patients that experienced AEs
# [2] = average treatment window of slightly under 13 days
# [3] = dosage amounts between 50-200 mg per day
# [4] = mean treatment horizon of 22 days
# [5] = mean treatment period of 7 days
# [6] = patients with subthreshold and clinically significant scores at baseline
compound,measurement,setting,value
"C=C(C)C1CCC(C)=CC1c1c(O)cc(CCCCC)cc1O (stereo not drawn) [cannabidiol, 2-[3-methyl-6-(1-methylethenyl)-2-cyclohexen-1-yl]-5-pentyl-1,3-benzenediol]",Patients with any AEs,patients; 36 out of 190 patients on CBD only,19%
same,Share of AEs that were mild (no change in dose or product),patients; [1],61%
same,Share of AEs that were moderate (requiring change in dose or product),patients; [1],36%
same,Patients with severe AEs (allergic reactions and constipation) resulting in cessation of the product,patients; one of the 36 patients with AEs,2.8%
same,"DASS-21 Anxiety Score, Post 1-month follow-up Mean (Std. dev)","symptoms of anxiety; All (n = 146), initial mean 13.7 (8.7), p 0.000",9.1 (6.8)
same,"DASS-21 Anxiety Score, Post 1-month follow-up Mean (Std. dev)","symptoms of anxiety; Mod to extreme (n = 100), initial mean 17.7 (7.5), p 0.000",11.0 (7.1)
same,Decrease in anxiety score,symptoms of anxiety; [2],−6.0
same,"DASS-21 Anxiety Score, Post 1-month follow-up Mean (Std. dev)","symptoms of anxiety; baseline category Mild 8-9 (n = 13), initial mean 8.0 (0.0), p 0.291",7.1 (3.0)
same,"DASS-21 Anxiety Score, Post 1-month follow-up Mean (Std. dev)","symptoms of anxiety; baseline category Moderate 10-14 (n = 50), initial mean 12.1 (1.7), p 0.000",8.8 (5.1)
same,"DASS-21 Anxiety Score, Post 1-month follow-up Mean (Std. dev)","symptoms of anxiety; baseline category Normal 0-7 (n = 33), initial mean 3.9 (1.7), p 0.667",4.2 (3.7)
same,"DASS-21 Anxiety Score, Post 1-month follow-up Mean (Std. dev)","symptoms of anxiety; baseline category Severe 15-19 (n = 16), initial mean 17.0 (1.0), p 0.009",10.9 (7.9)
same,Change in anxiety score from initial visit to first follow-up versus dosage (FIG. 6),symptoms of anxiety; [3],"correlated with a higher value of change indicating less symptoms of anxiety, stress and/or depression"
same,Fall in anxiety score,symptoms of anxiety; [4],−5.7
same,Decline in anxiety score,symptoms of anxiety; [5],−10.5
same,Mean DASS-21 anxiety score over the first six months (FIG. 14),symptoms of anxiety; [6],significant reduction over the 6-month period
same,"DASS-21 Stress Score, Post 1-month follow-up Mean (Std. dev)","symptoms of stress; All (n = 146), initial mean 21.6 (9.5), p 0.000",16.2 (9.5)
same,"DASS-21 Stress Score, Post 1-month follow-up Mean (Std. dev)","symptoms of stress; Mod to extreme (n = 79), initial mean 28.8 (6.2), p 0.000",20.5 (9.4)
same,Decrease in stress score,symptoms of stress; [2],−9.0
same,"DASS-21 Stress Score, Post 1-month follow-up Mean (Std. dev)","symptoms of stress; baseline category Extremely Severe 34+ (n = 18), initial mean 38.2 (2.4), p 0.000",21.7 (12.2)
same,"DASS-21 Stress Score, Post 1-month follow-up Mean (Std. dev)","symptoms of stress; baseline category Mild 15-18 (n = 27), initial mean 16.9 (1.0), p 0.038",14.1 (6.5)
same,"DASS-21 Stress Score, Post 1-month follow-up Mean (Std. dev)","symptoms of stress; baseline category Moderate 19-25 (n = 27), initial mean 22.4 (1.8), p 0.002",17.2 (7.7)
same,"DASS-21 Stress Score, Post 1-month follow-up Mean (Std. dev)","symptoms of stress; baseline category Normal 0-14 (n = 40), initial mean 10.6 (3.1), p 0.100",9.0 (6.0)
same,"DASS-21 Stress Score, Post 1-month follow-up Mean (Std. dev)","symptoms of stress; baseline category Severe 26-33 (n = 34), initial mean 28.9 (1.9), p 0.000",22.6 (8.4)
same,Change in stress score from initial visit to first follow-up versus dosage (FIG. 7),symptoms of stress; [3],"correlated with a higher value of change indicating less symptoms of anxiety, stress and/or depression"
same,Fall in stress score,symptoms of stress; [4],−5.8
same,Decline in stress score,symptoms of stress; [5],−16.0
same,Mean DASS-21 stress score over the first six months (FIG. 16),symptoms of stress; [6],significant reduction over the 6-month period
